Experiments:
[1] = molecular target: T1, Adrenergic receptor alpha-2 (Rattus norvegicus, UniProt P22086+P19328+P22909); experiment: The binding affinity at the Alpha-2 adrenergic receptor determined using [3H]RX-821002; Not tested; assay type: protein assay
T1 sequence (P22086 whole entry): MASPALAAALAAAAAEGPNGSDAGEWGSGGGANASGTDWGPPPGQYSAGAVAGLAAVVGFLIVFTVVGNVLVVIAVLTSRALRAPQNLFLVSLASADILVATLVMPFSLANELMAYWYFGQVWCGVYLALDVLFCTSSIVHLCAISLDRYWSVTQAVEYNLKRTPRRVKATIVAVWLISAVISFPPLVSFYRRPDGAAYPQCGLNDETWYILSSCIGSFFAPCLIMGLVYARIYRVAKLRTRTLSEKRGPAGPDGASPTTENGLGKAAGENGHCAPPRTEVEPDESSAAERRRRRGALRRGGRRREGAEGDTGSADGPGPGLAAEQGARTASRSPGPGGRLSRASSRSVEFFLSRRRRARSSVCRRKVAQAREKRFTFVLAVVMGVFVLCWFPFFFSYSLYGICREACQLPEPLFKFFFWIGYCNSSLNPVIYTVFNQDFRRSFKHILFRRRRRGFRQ
T1 sequence (P19328 whole entry): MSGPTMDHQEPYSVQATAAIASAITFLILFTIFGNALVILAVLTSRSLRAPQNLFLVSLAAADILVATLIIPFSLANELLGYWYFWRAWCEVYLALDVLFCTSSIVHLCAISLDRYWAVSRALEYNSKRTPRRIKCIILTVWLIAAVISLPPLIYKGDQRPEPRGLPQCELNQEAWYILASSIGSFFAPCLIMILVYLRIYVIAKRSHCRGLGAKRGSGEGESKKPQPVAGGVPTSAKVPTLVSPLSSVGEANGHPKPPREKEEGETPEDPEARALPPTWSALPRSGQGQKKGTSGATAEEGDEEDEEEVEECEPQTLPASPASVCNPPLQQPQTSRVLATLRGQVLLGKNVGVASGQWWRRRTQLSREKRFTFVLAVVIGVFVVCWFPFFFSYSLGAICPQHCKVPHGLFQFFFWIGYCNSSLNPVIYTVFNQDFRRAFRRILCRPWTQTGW
T1 sequence (P22909 whole entry): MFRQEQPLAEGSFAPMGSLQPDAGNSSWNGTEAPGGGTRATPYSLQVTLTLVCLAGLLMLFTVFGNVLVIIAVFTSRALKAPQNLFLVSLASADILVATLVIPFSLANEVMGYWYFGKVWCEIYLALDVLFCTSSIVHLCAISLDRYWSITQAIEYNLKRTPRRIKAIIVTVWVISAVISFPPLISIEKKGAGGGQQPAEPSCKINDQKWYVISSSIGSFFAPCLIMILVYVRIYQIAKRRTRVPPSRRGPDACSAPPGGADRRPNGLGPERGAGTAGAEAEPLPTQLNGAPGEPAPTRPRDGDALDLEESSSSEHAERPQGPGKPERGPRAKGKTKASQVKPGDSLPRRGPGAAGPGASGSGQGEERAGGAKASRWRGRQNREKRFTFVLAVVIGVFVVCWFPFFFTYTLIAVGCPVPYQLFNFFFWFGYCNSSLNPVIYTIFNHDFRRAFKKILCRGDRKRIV

[2] = molecular target: 5-hydroxytryptamine receptor 2A (Rattus norvegicus, UniProt P14842); experiment: The binding affinity at 5-hydroxytryptamine 2A receptor was determined using [3H]ketanserin
Chain of 5-hydroxytryptamine receptor 2A (P14842 whole entry): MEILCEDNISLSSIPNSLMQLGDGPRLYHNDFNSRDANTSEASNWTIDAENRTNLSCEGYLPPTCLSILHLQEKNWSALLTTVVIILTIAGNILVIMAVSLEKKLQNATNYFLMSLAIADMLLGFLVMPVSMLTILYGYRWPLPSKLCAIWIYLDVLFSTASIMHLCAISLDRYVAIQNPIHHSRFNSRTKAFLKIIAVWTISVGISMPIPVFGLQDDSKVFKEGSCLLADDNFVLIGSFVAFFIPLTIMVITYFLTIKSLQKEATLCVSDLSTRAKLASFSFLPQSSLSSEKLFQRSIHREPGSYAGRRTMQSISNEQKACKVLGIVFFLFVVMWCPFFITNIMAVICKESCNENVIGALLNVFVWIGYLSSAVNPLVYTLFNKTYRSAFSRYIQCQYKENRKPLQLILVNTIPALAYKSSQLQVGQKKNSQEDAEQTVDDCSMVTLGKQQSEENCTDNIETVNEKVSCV

[3] = molecular target: T2, Adrenergic receptor alpha-1 (Rattus norvegicus, UniProt P15823+P23944+P43140); experiment: The binding affinity at Alpha-1 adrenergic receptor determined using [3H]prazosin; assay type: protein assay
T2 sequence (P15823 whole entry): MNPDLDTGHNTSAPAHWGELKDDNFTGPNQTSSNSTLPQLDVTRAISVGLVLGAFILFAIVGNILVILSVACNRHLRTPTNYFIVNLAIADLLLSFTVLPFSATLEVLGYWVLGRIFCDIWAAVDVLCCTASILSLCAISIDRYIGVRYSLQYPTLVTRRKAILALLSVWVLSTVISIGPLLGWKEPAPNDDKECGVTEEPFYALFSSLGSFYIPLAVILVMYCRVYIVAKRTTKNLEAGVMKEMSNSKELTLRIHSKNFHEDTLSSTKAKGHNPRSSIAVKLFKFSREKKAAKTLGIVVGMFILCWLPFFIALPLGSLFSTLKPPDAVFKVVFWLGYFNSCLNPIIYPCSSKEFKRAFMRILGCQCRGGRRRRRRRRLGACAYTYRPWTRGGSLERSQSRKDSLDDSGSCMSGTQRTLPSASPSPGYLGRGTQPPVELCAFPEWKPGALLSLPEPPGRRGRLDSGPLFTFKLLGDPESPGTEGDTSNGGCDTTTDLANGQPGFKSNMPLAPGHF
T2 sequence (P23944 whole entry): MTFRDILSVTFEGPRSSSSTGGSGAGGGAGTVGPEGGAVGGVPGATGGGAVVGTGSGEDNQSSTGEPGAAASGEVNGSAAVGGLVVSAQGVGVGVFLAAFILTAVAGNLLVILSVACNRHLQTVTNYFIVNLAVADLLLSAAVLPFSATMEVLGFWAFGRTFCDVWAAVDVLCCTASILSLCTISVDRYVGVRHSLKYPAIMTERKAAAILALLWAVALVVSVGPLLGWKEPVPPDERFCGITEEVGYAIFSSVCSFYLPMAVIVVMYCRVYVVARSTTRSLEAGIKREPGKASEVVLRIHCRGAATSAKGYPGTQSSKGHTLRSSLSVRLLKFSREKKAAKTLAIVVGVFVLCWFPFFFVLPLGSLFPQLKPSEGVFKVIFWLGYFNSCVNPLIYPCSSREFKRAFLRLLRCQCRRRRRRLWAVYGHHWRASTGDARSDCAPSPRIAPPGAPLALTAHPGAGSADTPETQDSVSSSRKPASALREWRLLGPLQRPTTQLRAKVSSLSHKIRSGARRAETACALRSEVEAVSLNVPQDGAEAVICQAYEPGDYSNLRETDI
T2 sequence (P43140 whole entry): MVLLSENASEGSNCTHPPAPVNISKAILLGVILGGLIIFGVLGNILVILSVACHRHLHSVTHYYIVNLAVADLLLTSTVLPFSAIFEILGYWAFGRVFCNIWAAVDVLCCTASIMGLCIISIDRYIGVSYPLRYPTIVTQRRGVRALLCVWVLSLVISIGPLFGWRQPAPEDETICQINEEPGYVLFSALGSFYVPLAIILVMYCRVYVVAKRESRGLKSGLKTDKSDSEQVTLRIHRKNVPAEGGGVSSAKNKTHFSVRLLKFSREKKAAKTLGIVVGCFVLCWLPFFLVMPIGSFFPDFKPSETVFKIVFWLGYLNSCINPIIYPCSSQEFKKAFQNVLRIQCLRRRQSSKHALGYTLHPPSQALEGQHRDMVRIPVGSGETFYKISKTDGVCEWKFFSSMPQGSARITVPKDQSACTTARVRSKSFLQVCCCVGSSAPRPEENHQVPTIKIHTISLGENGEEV

[4] = The binding affinity at the Histamine H1 receptor determined using [3H]pyrilamine; design: species or system Cavia porcellus
[5] = molecular target: T3, 5-hydroxytryptamine receptor 2C (Rattus norvegicus, UniProt P08909); experiment: The binding affinity at 5-hydroxytryptamine 2C receptor was determined using [3H]mesulergine
T3 sequence (P08909 whole entry): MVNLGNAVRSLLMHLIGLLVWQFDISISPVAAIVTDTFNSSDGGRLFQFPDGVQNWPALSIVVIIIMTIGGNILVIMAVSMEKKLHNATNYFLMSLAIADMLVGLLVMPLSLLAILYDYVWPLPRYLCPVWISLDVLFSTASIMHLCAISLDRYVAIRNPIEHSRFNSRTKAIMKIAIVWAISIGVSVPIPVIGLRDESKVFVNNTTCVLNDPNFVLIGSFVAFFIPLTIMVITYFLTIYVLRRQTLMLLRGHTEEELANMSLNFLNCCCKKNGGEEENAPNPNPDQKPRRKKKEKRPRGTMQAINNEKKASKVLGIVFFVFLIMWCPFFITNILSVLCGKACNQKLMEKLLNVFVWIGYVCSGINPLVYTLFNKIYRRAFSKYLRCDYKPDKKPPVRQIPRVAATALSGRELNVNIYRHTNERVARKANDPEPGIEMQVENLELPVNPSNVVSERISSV

Rattus norvegicus [6] = experiment: The increase in the extracellular levels of DOPAC in the rat ventral hippocampus at a dose of 5.0 mg/kg sc measured by in vivo microdialysis; assay type: functional; conditions: route subcutaneous
[7] = molecular target: Norepinephrine transporter (Rattus norvegicus, UniProt Q9WTR4); experiment: The binding affinity at the Norepinephrine transporter reuptake sites determined using competition binding assay
Chain of Norepinephrine transporter (Q9WTR4 whole entry): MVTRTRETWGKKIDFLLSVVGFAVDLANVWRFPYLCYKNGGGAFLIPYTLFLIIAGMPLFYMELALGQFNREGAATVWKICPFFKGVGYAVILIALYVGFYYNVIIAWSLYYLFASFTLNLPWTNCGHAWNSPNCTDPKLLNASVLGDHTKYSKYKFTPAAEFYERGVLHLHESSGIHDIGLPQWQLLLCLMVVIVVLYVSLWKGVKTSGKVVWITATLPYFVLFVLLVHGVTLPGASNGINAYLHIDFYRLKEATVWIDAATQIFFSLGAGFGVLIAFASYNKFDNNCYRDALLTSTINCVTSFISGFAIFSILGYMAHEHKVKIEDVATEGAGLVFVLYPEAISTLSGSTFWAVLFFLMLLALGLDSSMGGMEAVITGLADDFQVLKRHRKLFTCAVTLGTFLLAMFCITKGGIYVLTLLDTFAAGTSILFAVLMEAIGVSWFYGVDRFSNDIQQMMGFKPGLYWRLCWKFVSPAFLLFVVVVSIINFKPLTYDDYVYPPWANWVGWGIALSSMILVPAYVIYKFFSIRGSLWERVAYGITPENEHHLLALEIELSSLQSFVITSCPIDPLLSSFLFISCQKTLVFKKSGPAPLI

Rattus norvegicus [8] = experiment: The increase in the extracellular levels of 5-HT in the rat ventral hippocampus at a dose of 5.0 mg/kg sc measured by in vivo microdialysis; assay type: functional; conditions: route subcutaneous
[9] = molecular target: Sodium-dependent serotonin transporter (Rattus norvegicus, UniProt P31652); experiment: The binding affinity at the 5-HT reuptake sites determined using competition binding assay
Chain of Sodium-dependent serotonin transporter (P31652 whole entry): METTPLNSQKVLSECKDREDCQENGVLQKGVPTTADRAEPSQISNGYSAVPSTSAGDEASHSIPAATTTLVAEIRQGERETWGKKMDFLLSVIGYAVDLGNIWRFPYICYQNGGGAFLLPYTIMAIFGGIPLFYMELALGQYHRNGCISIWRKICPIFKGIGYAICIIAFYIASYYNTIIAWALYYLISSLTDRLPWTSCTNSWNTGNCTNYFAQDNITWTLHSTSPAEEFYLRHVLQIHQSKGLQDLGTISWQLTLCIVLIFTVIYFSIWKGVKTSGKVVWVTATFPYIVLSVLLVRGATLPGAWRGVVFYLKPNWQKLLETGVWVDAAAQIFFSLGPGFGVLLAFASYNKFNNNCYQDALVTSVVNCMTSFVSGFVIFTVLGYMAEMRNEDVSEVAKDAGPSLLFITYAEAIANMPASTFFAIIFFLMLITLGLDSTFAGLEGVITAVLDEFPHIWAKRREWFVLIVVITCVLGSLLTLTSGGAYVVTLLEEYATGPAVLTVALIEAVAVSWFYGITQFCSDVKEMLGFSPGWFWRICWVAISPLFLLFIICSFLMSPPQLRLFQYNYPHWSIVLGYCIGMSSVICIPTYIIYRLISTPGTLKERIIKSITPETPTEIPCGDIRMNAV

D(4) dopamine receptor = molecular target: T4, D(4) dopamine receptor (Homo sapiens, UniProt P21917); experiment: The binding affinity at the Dopamine receptor D4 determined using [3H]YM-09151-2
T4 sequence (P21917 whole entry): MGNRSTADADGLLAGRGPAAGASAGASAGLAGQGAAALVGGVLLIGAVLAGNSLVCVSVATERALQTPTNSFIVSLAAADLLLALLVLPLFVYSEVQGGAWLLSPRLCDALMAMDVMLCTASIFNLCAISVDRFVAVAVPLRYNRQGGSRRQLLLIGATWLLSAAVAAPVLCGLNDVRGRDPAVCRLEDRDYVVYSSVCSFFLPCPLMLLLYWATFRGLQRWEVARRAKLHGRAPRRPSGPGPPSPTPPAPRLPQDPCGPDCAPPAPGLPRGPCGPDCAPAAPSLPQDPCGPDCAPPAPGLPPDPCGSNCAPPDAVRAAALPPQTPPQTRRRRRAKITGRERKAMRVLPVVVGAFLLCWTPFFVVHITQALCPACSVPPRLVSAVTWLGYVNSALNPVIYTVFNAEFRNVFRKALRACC

Structure (SMILES): CN1CCN2c3c(cccc3OS(=O)(=O)C(F)(F)F)Cc3ccccc3C2C1 (racemic)
- IC50 [1]: 1000 nM
- IC50 [2]: 277 nM

Structure (SMILES): CN1CCN2c3c(O)cccc3Cc3ccccc3C2C1 (racemic)
- IC50 [1]: 1000 nM
- Ki [3]: 1000 nM
- Ki [4]: 21 nM
- Ki [5]: 2 nM
- IC50 [2]: 12 nM

Structure (SMILES): CN1CCN2c3ccccc3Cc3ccccc3C2C1 (racemic) [MIANSERIN]
- Increase (Rattus norvegicus [6]): 160%
- Ki [4]: 4.2 nM
- IC50 [7]: 22 nM

Structure (SMILES): CN1CCN2c3ncccc3Cc3ccccc3C2C1 (racemic) [MIRTAZAPINE]
- Increase (Rattus norvegicus [8]): 180%
- IC50 [9]: > 100 nM
- Ki [3]: 1050 nM
- Increase (Rattus norvegicus [6]): 200%
- Ki (D(4) dopamine receptor): > 25 nM
- Ki [4]: 5.1 nM
- IC50 [7]: 260 nM
- Ki [5]: 5.5 nM
